According to US10253039B2, “Inhibitors of bacterial DNA gyrase with efficacy against gram-negative bacteria” (priority 2014, dated 2019):
Converted amounts (≈) assume the structure as drawn. Like-named read-outs stand apart in the source and are kept apart here.

Assays:
E. coli BW25113 ΔtolC = test: MIC, microdilution in 96-well plates; conditions: Escherichia coli
Salmonella typhimurium = test: MIC, microdilution in 96-well plates; conditions: Salmonella enterica
[1] = test system: E. coli BW25113 ΔtolC gyrR isolate GyrA His45Tyr; test: MIC against gyramide-resistant mutant; conditions: Escherichia coli, BW25113
Protocol: (§2) A microdilution method in 96-well plates was used and the MIC protocol established by the Clinical Laboratory Standards Institute was followed. From a growing subculture, a 1:10000 inoculum of each strain in Luria-Bertani media was prepared and aliquoted 100 μL in 4 columns of wells, except for the top row wells, which contained 200 μL of inoculum. […] The liquid in each of wells was mixed with a multi-channel pipet and 100 μL was transferred to the next well and mixed. The 2-fold dilution was continued down the 96-well plate until 100 μL was left, which was discarded. The plates were incubated at 37° C. with shaking for 16-18 hours. The MIC was determined as the lowest concentration that inhibited growth and had no turbidity by visual inspection.

[2] = test system: E. coli BW25113 ΔtolC cipR isolate GyrA Asp87Gly; test: MIC against ciprofloxacin-resistant mutant; conditions: Escherichia coli, BW25113
Protocol: as §2

[3] = test system: E. coli BW25113 ΔtolC gyrR isolate GyrA Phe96Leu; test: MIC against gyramide-resistant mutant; conditions: Escherichia coli, BW25113
Protocol: as §2

Vibrio cholera = test: MIC, microdilution in 96-well plates; conditions: Vibrio cholerae
wild-type E. coli = test: Killing / inhibition of wild-type E. coli; format: cell-based, Escherichia coli
Text: The compounds of the invention are observed to inhibit wild-type E. coli.

[4] = biological target: T1, GyrBAfus:20-20 bp DNA complex (Staphylococcus aureus, UniProt P0A0K8+P20831); test: 1H NMR binding study, titration; conditions: titrating 1:1 GyrBAfus:20-20 bp DNA into 50 μM compound
T1 construct: The C-terminal end of the B subunit was connected to the N-terminal end of the A subunit
T1 sequence (P0A0K8 410-543): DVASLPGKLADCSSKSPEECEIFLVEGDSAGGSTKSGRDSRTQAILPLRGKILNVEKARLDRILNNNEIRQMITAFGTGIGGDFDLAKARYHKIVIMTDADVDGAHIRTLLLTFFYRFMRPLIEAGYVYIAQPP
T1 sequence (P0A0K8 580-644): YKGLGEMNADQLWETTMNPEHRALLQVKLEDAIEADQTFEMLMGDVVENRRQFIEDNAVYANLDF
T1 sequence (P20831 2-491): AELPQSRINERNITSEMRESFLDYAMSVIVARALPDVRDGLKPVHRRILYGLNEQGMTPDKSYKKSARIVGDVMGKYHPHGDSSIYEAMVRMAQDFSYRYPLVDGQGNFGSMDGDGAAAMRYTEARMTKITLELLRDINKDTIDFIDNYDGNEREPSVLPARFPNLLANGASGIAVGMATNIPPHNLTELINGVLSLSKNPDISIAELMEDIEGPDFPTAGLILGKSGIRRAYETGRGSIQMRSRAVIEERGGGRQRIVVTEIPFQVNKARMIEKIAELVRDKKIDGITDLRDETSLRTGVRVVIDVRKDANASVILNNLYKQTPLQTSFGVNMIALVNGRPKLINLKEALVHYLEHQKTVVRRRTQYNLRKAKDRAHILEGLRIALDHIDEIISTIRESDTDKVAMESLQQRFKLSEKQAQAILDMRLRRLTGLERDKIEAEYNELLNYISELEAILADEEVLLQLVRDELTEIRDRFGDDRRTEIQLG

E. coli DNA gyrase = E. coli DNA gyrase (Escherichia coli, UniProt P0AES4+P0AES6); test: DNA gyrase gel shift assay; conditions: IC50 against E. coli DNA gyrase, WT Gyrase
E. coli DNA gyrase, sequence (P0AES4 whole entry, one chain of several): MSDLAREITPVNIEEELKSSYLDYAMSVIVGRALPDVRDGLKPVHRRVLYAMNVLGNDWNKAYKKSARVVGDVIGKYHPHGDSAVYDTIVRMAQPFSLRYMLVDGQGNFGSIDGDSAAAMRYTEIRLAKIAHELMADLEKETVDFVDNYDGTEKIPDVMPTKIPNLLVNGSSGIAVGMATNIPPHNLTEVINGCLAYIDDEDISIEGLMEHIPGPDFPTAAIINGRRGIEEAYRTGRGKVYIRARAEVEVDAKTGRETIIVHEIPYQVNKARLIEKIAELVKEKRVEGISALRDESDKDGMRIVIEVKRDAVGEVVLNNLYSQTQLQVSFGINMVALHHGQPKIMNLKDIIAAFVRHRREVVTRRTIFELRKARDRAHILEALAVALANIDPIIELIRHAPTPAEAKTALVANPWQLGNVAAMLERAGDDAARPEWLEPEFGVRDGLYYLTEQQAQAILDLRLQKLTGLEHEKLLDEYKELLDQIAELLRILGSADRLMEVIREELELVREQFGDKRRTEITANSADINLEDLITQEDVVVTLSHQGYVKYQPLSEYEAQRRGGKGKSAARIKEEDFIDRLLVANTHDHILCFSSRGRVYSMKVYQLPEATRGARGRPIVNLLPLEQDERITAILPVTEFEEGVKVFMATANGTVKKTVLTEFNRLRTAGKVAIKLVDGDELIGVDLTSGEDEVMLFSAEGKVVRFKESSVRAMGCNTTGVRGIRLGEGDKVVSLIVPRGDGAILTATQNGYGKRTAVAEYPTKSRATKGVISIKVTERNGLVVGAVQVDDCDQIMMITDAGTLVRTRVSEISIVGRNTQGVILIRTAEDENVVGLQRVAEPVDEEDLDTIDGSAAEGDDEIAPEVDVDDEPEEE

Morganella morganii = test: MIC, microdilution in 96-well plates
[5] = test system: Staphylococcus aureus subsp. aureus; test: MIC, 20-strain panel; format: cell-based; conditions: Staphylococcus aureus subsp. aureus, Table 7, separate set of experiments, read-out: MIC
Method in brief: (§1)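 Values come from visual inspection: the lowest concentration inhibiting growth with no turbidity. Strains grew in Luria-Bertani media at 37° C. with shaking for 16-18 hours after seeding at 1:10000, against triplicate 2-fold compound dilutions.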

[6] = test system: Salmonella enterica subsp. enterica typhimurium; test: MIC, 20-strain panel; format: cell-based; conditions: Salmonella enterica subsp. enterica typhimurium, Table 7, separate set of experiments
Method in brief: as §1

E. coli MG1655 = test: MIC, 20-strain panel; format: cell-based; conditions: Escherichia coli, MG1655, E. coli MG1655; Table 7, separate set of experiments; read-out: MIC
Method in brief: as §1

[7] = test system: Morganella morganii subsp. morganii; test: MIC, 20-strain panel; format: cell-based; conditions: Morganella morganii subsp. morganii; Table 7, separate set of experiments; read-out: MIC
Method in brief: as §1

Bacillus subtilis 168 = test: MIC, 20-strain panel; format: cell-based; conditions: Table 7, separate set of experiments, read-out: MIC
Method in brief: as §1

Shigella flexneri = test: MIC, 20-strain panel; format: cell-based; conditions: Table 7, separate set of experiments
Method in brief: as §1

[8] = test system: Klebsiella pneumoniae subsp. pneumoniae; test: MIC, 20-strain panel; format: cell-based; conditions: Klebsiella pneumoniae subsp. pneumoniae, Table 7, separate set of experiments, read-out: MIC
Method in brief: as §1

Streptococcus pyogenes = test: MIC, 20-strain panel; format: cell-based; conditions: Table 7, separate set of experiments, read-out: MIC
Method in brief: as §1

Enterococcus faecalis = test: MIC, 20-strain panel; format: cell-based; conditions: Table 7, separate set of experiments
Method in brief: as §1

[9] = test system: Staphylococcus saprophyticus subsp. saprophyticus; test: MIC, 20-strain panel; format: cell-based; conditions: Staphylococcus saprophyticus subsp. saprophyticus, Table 7, separate set of experiments, read-out: MIC
Method in brief: as §1

Enterococcus faecium = test: MIC, 20-strain panel; format: cell-based; conditions: Table 7, separate set of experiments, read-out: MIC
Method in brief: as §1

[10] = test system: Staphylococcus epidermidis; test: MIC, 20-strain panel; format: cell-based; conditions: Table 7, separate set of experiments, read-out: MIC
Method in brief: as §1

E. coli JW5503 (deltolC) = test: MIC, 20-strain panel; format: cell-based; conditions: Escherichia coli, E. coli JW5503 (deltolC); Table 7, separate set of experiments
Method in brief: as §1

Bacillus cereus = test: MIC, 20-strain panel; format: cell-based; conditions: Table 7, separate set of experiments, read-out: MIC
Method in brief: as §1

Streptococcus agalactiae = test: MIC, 20-strain panel; format: cell-based; conditions: Table 7, separate set of experiments, read-out: MIC
Method in brief: as §1

Pseudomonas aeruginosa = test: MIC, microdilution in 96-well plates; format: cell-based; conditions: read-out: MIC
Method in brief: as §1

Edwardsiella tarda = test: MIC, microdilution in 96-well plates; format: cell-based; conditions: read-out: MIC
Method in brief: as §1

Acinetobacter baumannii = test: MIC, microdilution in 96-well plates; format: cell-based; conditions: read-out: MIC
Method in brief: as §1

E. coli BW25113 = test: MIC, microdilution in 96-well plates; format: cell-based; conditions: Escherichia coli, BW25113, E. coli BW25113, read-out: MIC
Method in brief: as §1

[11] = test system: E. coli BW25113 ΔtolC gyrR isolate GyrB Thr508Met; test: MIC against gyramide-resistant mutant; conditions: Escherichia coli, BW25113
Protocol: as §2

[12] = Table 7, separate set of experiments

SMILES: N#Cc1cccc(S(=O)(=O)N[C@@H]2CCN(Cc3ccc(-c4ccccc4)cc3)C2)c1 [Gyramide C2, gyramide C2]
- MIC (E. coli BW25113 ΔtolC; BW25113, E. coli BW25113 ΔtolC (parent strain), Table 4): 0.1 µM (≈ 0.0418 µg/mL)
- MIC (E. coli BW25113 ΔtolC; BW25113, E. coli BW25113 ΔtolC (parent strain), Table 5): 0.1 µM (≈ 0.0418 µg/mL)
- MIC (E. coli BW25113 ΔtolC; BW25113, E. coli BW25113 ΔtolC, without PAβN, Table 3): 0.25 µM (≈ 0.104 µg/mL)
- MIC (Salmonella typhimurium; with PAβN (60 μM)): 2.5 µM (≈ 1.04 µg/mL)
- MIC (Salmonella typhimurium; without PAβN): > 640 µM
- MIC [1]: > 25.6 µM
- MIC [2]: 0.8 µM (≈ 0.334 µg/mL)
- MIC [3]: 25.6 µM (≈ 10.7 µg/mL)
- MIC (Vibrio cholera; with PAβN (60 μM)): 40 µM (≈ 16.7 µg/mL)
- MIC (Vibrio cholera; without PAβN): 160 µM (≈ 66.8 µg/mL)
- concentration observed to kill wild-type E. coli (wild-type E. coli): 20 µM
- Kd for the association [4]: < 50 µM
- IC50 (E. coli DNA gyrase; Average of 3 trials): 0.122 ± 0.0392 µM
- IC50 (E. coli DNA gyrase; Trial 1): 0.0845 µM
- IC50 (E. coli DNA gyrase; Trial 2): 0.119 µM
- IC50 (E. coli DNA gyrase; Trial 3): 0.163 µM
- MIC (Morganella morganii): > 640 µM
- MIC (Morganella morganii; without PAβN): >640 µM
- MIC [5]: > 16 mg/L
- MIC [6]: 2 mg/L (≈ 4.79 µM)
- MIC (E. coli MG1655): 16 mg/L (≈ 38.3 µM)
- MIC [7]: > 16 mg/L
- MIC (Bacillus subtilis 168): > 16 mg/L
- MIC (Shigella flexneri): 8 mg/L (≈ 19.2 µM)
- MIC [8]: > 16 mg/L
- MIC (Streptococcus pyogenes): > 16 mg/L
- MIC (Enterococcus faecalis): > 16 mg/L
- MIC [9]: > 16 mg/L
- MIC (Enterococcus faecium): > 16 mg/L
- MIC [10]: > 16 mg/L
- MIC (E. coli JW5503 (deltolC)): 0.015 mg/L (≈ 0.0359 µM)
- MIC (Bacillus cereus): > 16 mg/L
- MIC (Streptococcus agalactiae): > 16 mg/L
- MIC (Pseudomonas aeruginosa; [12]): > 16 mg/L
- MIC (Pseudomonas aeruginosa; with PAβN (60 μM)): 20 µM
- MIC (Pseudomonas aeruginosa; without PAβN): > 640 µM
- MIC (Edwardsiella tarda; [12]): 16 mg/L
- MIC (Edwardsiella tarda; with PAβN (60 μM)): 20 µM
- MIC (Edwardsiella tarda; without PAβN): > 640 µM
- MIC (Acinetobacter baumannii; [12]): > 16 mg/L
- MIC (Acinetobacter baumannii; with PAβN (60 μM)): 40 µM
- MIC (Acinetobacter baumannii; without PAβN): > 640 µM
- MIC (E. coli BW25113; [12]): 16 mg/L
- MIC (E. coli BW25113; without PAβN): 20 µM
- MIC [11]: 25.6 µM (≈ 10.7 µg/mL)
